These results are taken from US7332473B2, “Peptides and medicinal compositions containing the same” (priority 2002, dated 2008).

Square brackets hold non-standard residues; d marks the D form. Ends that are not written are not given here. Met(O) = CS(=O)CC[C@H](N)C(=O)O

Data set [1] relates to murine gastric smooth muscles. The data set is described as follows: Inhibition of carbachol-induced constriction of murine gastric smooth muscle (Magnus apparatus). More on the design: species or system ICR mice. Particulars: final concentration 10^−6 M, peptide 1 = 100%.
Data set [2] can be described thus: Helical content from circular dichroism spectra. The data set is classed as physicochemical. Particulars: 20 mM Tris-HCl buffer (pH 7.4), calculation by Greenfield et al. Here is the method: VIP (peptide 1, SEQ ID NO: 2), peptide 7 (SEQ ID NO: 8) corresponding to 25 residues at the N-terminus of VIP, and peptide 8 (SEQ ID NO: 9), which is a peptide 7 derivative with its methionine-17 being oxidized, were dissolved in a 20 mM Tris-HCl buffer (pH 7.4), and the circular dichroism spectra thereof were examined using the Jasco J-720 (Jasco Corporation). According to analytical calculation of higher-order structure by Greenfield et al., the helical content of peptide 1 was about 50% (FIG. 2).

For the substance “His-Ser-Asp-Ala-Val-Phe-Thr-Asp-Asn-Tyr-Thr-Arg-Leu-Arg-Lys-Gln-Met(O)-Ala-Val-Lys-Lys-Tyr-Leu-Asn-Ser-NH2 (HSDAVFTDNYTRLRKQ[Met(O)]AVKKYLNS-NH2; N-terminus assumed; SMILES CC(C)C[C@H](NC(=O)[C@H](Cc1ccc(O)cc1)NC(=O)[C@H](CCCCN)NC(=O)[C@H](CCCCN)NC(=O)[C@@H](NC(=O)[C@H](C)NC(=O)[C@H](CCS(C)=O)NC(=O)[C@H](CCC(N)=O)NC(=O)[C@H](CCCCN)NC(=O)[C@H](CCCNC(=N)N)NC(=O)[C@H](CC(C)C)NC(=O)[C@H](CCCNC(=N)N)NC(=O)[C@@H](NC(=O)[C@H](Cc1ccc(O)cc1)NC(=O)[C@H](CC(N)=O)NC(=O)[C@H](CC(=O)O)NC(=O)[C@@H](NC(=O)[C@H](Cc1ccccc1)NC(=O)[C@@H](NC(=O)[C@H](C)NC(=O)[C@H](CC(=O)O)NC(=O)[C@H](CO)NC(=O)[C@@H](N)Cc1c[nH]cn1)C(C)C)[C@@H](C)O)[C@@H](C)O)C(C)C)C(=O)N[C@@H](CC(N)=O)C(=O)N[C@@H](CO)C(N)=O) [Peptide 8]”, the “maximal inhibition of murine gastric smooth muscle constriction (activity, in words)” value in data set [1] is given as “significantly attenuated compared to that of peptide 7”. Also, in data set [2], the helical content entry is on record as “reduced to about half that of peptide 1”.
